One compound from US20140037719A1, “STABILIZED PHARMACEUTICAL FORMULATIONS OF A POTENT HCV INHIBITOR” (Robert Majeska, priority 2012, published 2014) can be followed below.

The nature of the data set: Ames test / genotoxicity of degradation product. The data set is classed as cell-based.

Take `C=C[C@@H]1C[C@]1(N)C(=O)O` [Compound X]: the Ames result is listed as “Ames positive” and the genotoxicity result is given as “genotoxic”.
